In ChEMBL document CHEMBL1201862, “PubChem BioAssay data set” (2004):
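Growth conditions: 96-well plates. Treatment: test compound, 48 hours, 5 concentrations. Analysis: linear interpolation between bracketing concentrations; unreached endpoints set to highest concentration. The concentration for 50% growth inhibition is given as GI50.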 Active and inactive are the calls of the source. Cut-off read from the data, not from the text of the source: active = GI50 up to about 1.1 µM and inactive = higher.

Legend:
Experiment in all cases: DTP human tumour cell line panel, 48 h
[1] = system: HT-29
[2] = system: MDA-N
[3] = system: SF-295
[4] = system: DU-145
[5] = system: K562
[6] = system: A549
[7] = system: HL-60
[8] = system: ACHN
[9] = system: MDA-MB-231
[10] = system: SW-620
[11] = system: UACC-257
[12] = system: HCC 2998
[13] = system: MOLT-4
[14] = system: RXF 393
[15] = system: TK-10
[16] = system: SK-OV-3
[17] = system: T47D

Measured: GI50

CCN1C2=NCCN2S(=O)(=O)c2ccccc21
inactive: [1] > 100 µM | [2] > 100 µM | [3] > 100 µM | [4] > 100 µM | [5] > 100 µM | [6] > 100 µM | [7] > 100 µM | [8] > 100 µM | [9] > 100 µM | [10] > 100 µM | [11] > 100 µM | [12] > 100 µM | [13] > 100 µM | [14] > 100 µM | [15] > 100 µM | [16] > 100 µM | [17] > 100 µM

OC(c1ccc(Cl)cc1)(c1ccc(Cl)cc1)c1cncnc1
inactive: [1] 16.6 µM | [2] 19.2 µM | [3] 19.1 µM | [4] 24.6 µM | [5] 4.5 µM | [7] > 10 µM | [9] 18.6 µM | [10] 21.1 µM | [11] 19.2 µM | [12] > 10 µM | [13] 14.8 µM | [14] 13.4 µM | [15] 21.8 µM | [16] > 10 µM | [17] 28.2 µM

CCSCC(N)C(=O)O (stereo unspecified)
inactive: [1] > 100 µM | [2] > 100 µM | [3] > 100 µM | [4] > 100 µM | [6] > 100 µM | [7] > 100 µM | [8] > 100 µM | [9] > 100 µM | [10] > 100 µM | [11] > 100 µM | [14] > 100 µM | [15] > 100 µM | [16] > 100 µM | [17] > 100 µM

COc1ccc(N2C(=O)CS(=O)(=O)C2c2cccc(Oc3ccccc3)c2)cc1 (stereo unspecified)
inactive: [1] 3.68 µM | [2] 1.22 µM | [3] 3.94 µM | [4] 6.65 µM | [5] 1.71 µM | [6] 6.58 µM | [7] 3.32 µM | [8] 4.92 µM | [9] 2.69 µM | [10] 3.27 µM | [11] 2.74 µM | [13] 3.5 µM | [14] 4.04 µM | [15] 2.65 µM | [16] 4.38 µM | [17] 7.45 µM

CN(C)CCNC(=O)C(C)(C)Oc1ccc(C(=O)c2ccc(Cl)cc2)cc1Cl
inactive: [1] 2.56 µM | [2] 4.45 µM | [3] 10.6 µM | [4] 13.2 µM | [6] 9.18 µM | [7] 5.26 µM | [8] 11 µM | [9] 10.9 µM | [10] 5.26 µM | [11] 2 µM | [12] 5.21 µM | [13] 12 µM | [14] 7.52 µM | [15] 11.4 µM | [16] 15.9 µM | [17] 10.4 µM

Cc1ccc(S(=O)(=O)NC(=O)NC(Cc2ccc(O)cc2)C(=O)O)cc1 (stereo unspecified)
inactive: [1] > 100 µM | [2] > 100 µM | [3] > 100 µM | [4] > 100 µM | [5] > 100 µM | [6] > 100 µM | [7] > 100 µM | [9] > 100 µM | [10] > 100 µM | [11] > 100 µM | [13] > 100 µM | [14] > 100 µM | [15] > 100 µM | [16] > 100 µM | [17] > 100 µM

COc1cccc(/C=C2\N=C(c3ccccc3)OC2=O)c1
inactive: [1] > 100 µM | [2] 47.2 µM | [3] > 100 µM | [4] 91.2 µM | [5] 71.1 µM | [6] > 100 µM | [7] 10.7 µM | [8] > 100 µM | [9] > 100 µM | [10] > 100 µM | [11] > 100 µM | [12] 49.7 µM | [14] > 100 µM | [15] > 100 µM | [16] > 100 µM | [17] > 100 µM

O=c1[nH]nc(Nc2ccccc2)c2nnn(Cc3ccccc3)c12
inactive: [1] > 100 µM | [2] > 100 µM | [3] 86.9 µM | [4] > 100 µM | [5] > 100 µM | [6] > 100 µM | [7] > 100 µM | [8] > 100 µM | [9] 71.3 µM | [10] > 100 µM | [11] > 100 µM | [12] > 100 µM | [13] > 100 µM | [14] > 100 µM | [15] > 100 µM | [17] > 100 µM

O=C(CN1CCN(c2ccccn2)CC1)N1CCCn2c1nc1ccccc1c2=O
inactive: [1] > 100 µM | [2] > 100 µM | [3] > 100 µM | [4] > 100 µM | [5] > 100 µM | [6] > 100 µM | [7] > 100 µM | [8] > 100 µM | [9] > 100 µM | [10] > 100 µM | [11] > 100 µM | [12] > 100 µM | [13] > 100 µM | [15] > 100 µM | [16] > 100 µM | [17] > 100 µM
